# Experiments:
# [1] = Lipophilicity, logP of compound by HPLC analysis; type: physicochemical
# [2] = test system: MM1.S; test: Cytotoxicity against human MM1.S cells assessed as cell survival at 30 uM incubated for 48 hrs by Cell Titer-Glo luminescent assay relative to control; type: functional; conditions: read-out: Survival
# [3] = test system: KMS-12-PE; test: Cytotoxicity against human KMS-12-PE cells assessed as cell survival at 30 uM incubated for 48 hrs by Cell Titer-Glo luminescent assay relative to control; type: functional; conditions: read-out: Survival
# [4] = test system: MOLP-8; test: Cytotoxicity against human MOLP8 cells assessed as cell survival at 30 uM incubated for 48 hrs by Cell Titer-Glo luminescent assay relative to control; type: functional; conditions: read-out: Survival
# [5] = Cytotoxicity against human PBMC cells assessed as cell survival at 30 uM incubated for 48 hrs by Cell Titer-Glo luminescent assay relative to control; type: toxicity, cell-based; conditions: read-out: Survival
# [6] = Stability in human plasma assessed as half-life at 10 uM incubated upto 480 mins by HPLC analysis; type: ADME, cell-free
# [7] = target: Protein cereblon (Homo sapiens, UniProt Q96SW2); test: Binding affinity to human CRBN TBD assessed as inhibition constant using BODIPY-uracil as substrate by Microscale thermophoresis assay
# Protein cereblon, sequence (Q96SW2 whole entry): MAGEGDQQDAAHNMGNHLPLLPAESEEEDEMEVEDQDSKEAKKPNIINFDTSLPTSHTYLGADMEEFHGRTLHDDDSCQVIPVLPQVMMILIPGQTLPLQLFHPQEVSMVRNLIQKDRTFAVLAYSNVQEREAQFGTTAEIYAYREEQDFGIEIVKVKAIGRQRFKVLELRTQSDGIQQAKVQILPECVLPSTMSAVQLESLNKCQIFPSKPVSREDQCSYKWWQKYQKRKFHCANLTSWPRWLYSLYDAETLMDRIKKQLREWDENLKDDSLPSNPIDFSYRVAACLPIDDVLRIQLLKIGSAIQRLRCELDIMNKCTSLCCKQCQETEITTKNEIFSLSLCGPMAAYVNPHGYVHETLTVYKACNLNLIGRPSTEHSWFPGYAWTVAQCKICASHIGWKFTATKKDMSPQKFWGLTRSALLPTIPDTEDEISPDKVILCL
Structure (SMILES),logP [1],viability at 30 µM [2] [%],viability at 30 µM [3] [%],viability at 30 µM [4] [%],"viability at 48 h, 30 µM [5] [%]",half-life at 10 µM [6] [h],Ki [7] [µM]
O=C1CCC2(CC(c3ccccc3[N+](=O)[O-])=NO2)C(=O)N1 (stereo unspecified),1.23,81.9,88.5,75.5,71.5,,
O=C1CCC2(CC(c3ccccc3Br)=NO2)C(=O)N1 (stereo unspecified),1.68,88.3,97.8,100,74.9,,
O=C1CCC2(CC(c3ccccc3I)=NO2)C(=O)N1 (stereo unspecified),1.75,69.3,100,82.2,100,,
O=C1CCC2(CC(C3CCCCC3)=NO2)C(=O)N1 (stereo unspecified),1.87,100,100,97,100,,
CCCC1=NOC2(CCC(=O)NC2=O)C1 (stereo unspecified),0.87,76.7,100,100,100,,
COc1ccc(C2=NOC3(CCC(=O)NC3=O)C2)c(OC)c1OC (stereo unspecified),2.67,78.7,72.2,66.3,82.4,,
O=C1CCC2(CC(c3c(Cl)cccc3Cl)=NO2)C(=O)N1 (stereo unspecified),1.96,39.5,99.3,94.9,88.6,,
O=C1CCC2(CC(c3ccc(C(=O)O)cc3)=NO2)C(=O)N1 (stereo unspecified),,95.6,97.3,100,99.5,,
CC(C)(C)C1=NOC2(CCC(=O)NC2=O)C1 (stereo unspecified),1.09,75.6,100,100,100,,
O=C1CCC2(CC(c3ccccc3Cl)=NO2)C(=O)N1 (stereo unspecified),1.64,43.3,100,100,100,4.97,
CC1(C)CC(=O)NC(=O)C1,,,,,,,103
O=C1CCC2(CC(c3ccccc3F)=NO2)C(=O)N1 (stereo unspecified),1.37,76.5,89.2,84.5,88.6,,
O=C1CCC2(CC(C3CCCC3)=NO2)C(=O)N1 (stereo unspecified),1.28,62.2,92,93,89.9,,
O=C1CCC2(CC(c3ccc(Cl)cc3Cl)=NO2)C(=O)N1 (stereo unspecified),2.68,71.7,100,100,100,,
O=C1CCC2(CC(c3cccnc3)=NO2)C(=O)N1 (stereo unspecified),,23.2,88.9,75.5,83.6,,
COc1ccccc1C1=NOC2(CCC(=O)NC2=O)C1 (stereo unspecified),2.22,94.8,86.6,79.3,100,,
CCC(CC)C1=NOC2(CCC(=O)NC2=O)C1 (stereo unspecified),1.6,89.1,98.9,94.1,91.2,,
Nc1cccc2c1C(=O)N(C1CCC(=O)NC1=O)C2=O (stereo unspecified) [POMALIDOMIDE],,,,,,3.03,
O=C1CCC(N2C(=O)c3ccccc3C2=O)C(=O)N1 (stereo unspecified) [THALIDOMIDE],0.3,11.4,44.1,31.6,94.2,,

# Reference: ChEMBL document CHEMBL5523700, “Discovery and characterization of potent spiro-isoxazole-based cereblon ligands with a novel binding mode” (Eur J Med Chem, 2024)
